Source: patent publication US20150031668A1, “CHROMAN DERIVATIVES AS TRPM8 INHIBITORS” (AMGEN INC., priority 2013, published 2015)
Structures can show the parent of a compound that is named as a salt.

Target: T1, human TRPM8 (Homo sapiens, UniProt Q7Z2W7)
T1 construct: expressed in transfected cells; host or cells: Chinese hamster ovary (CHO) cells, T-REx tetracycline-inducible expression system (Invitrogen); co-transfected with pcDNA3.1 aequorin
Experiment: Luminescence readout assay for measuring intracellular calcium (aequorin, CHO cells expressing human TRPM8; icilin, L-menthol or cold activation)
Format: cell-based
Settings: CHO cells expressing human TRPM8, icilin activation (1 μM), aequorin luminescence; read-out: hTRPM8 IC50
How it was run: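 Activation was by 1 μM icilin, 100 μM L-menthol (test compound 2.5 min ahead) or cold buffer below 10° C (compound 1 min ahead). Calcium rise measured as aequorin luminescence in CHO cells with tetracycline-inducible human TRPM8.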

T1 sequence (Q7Z2W7 whole entry): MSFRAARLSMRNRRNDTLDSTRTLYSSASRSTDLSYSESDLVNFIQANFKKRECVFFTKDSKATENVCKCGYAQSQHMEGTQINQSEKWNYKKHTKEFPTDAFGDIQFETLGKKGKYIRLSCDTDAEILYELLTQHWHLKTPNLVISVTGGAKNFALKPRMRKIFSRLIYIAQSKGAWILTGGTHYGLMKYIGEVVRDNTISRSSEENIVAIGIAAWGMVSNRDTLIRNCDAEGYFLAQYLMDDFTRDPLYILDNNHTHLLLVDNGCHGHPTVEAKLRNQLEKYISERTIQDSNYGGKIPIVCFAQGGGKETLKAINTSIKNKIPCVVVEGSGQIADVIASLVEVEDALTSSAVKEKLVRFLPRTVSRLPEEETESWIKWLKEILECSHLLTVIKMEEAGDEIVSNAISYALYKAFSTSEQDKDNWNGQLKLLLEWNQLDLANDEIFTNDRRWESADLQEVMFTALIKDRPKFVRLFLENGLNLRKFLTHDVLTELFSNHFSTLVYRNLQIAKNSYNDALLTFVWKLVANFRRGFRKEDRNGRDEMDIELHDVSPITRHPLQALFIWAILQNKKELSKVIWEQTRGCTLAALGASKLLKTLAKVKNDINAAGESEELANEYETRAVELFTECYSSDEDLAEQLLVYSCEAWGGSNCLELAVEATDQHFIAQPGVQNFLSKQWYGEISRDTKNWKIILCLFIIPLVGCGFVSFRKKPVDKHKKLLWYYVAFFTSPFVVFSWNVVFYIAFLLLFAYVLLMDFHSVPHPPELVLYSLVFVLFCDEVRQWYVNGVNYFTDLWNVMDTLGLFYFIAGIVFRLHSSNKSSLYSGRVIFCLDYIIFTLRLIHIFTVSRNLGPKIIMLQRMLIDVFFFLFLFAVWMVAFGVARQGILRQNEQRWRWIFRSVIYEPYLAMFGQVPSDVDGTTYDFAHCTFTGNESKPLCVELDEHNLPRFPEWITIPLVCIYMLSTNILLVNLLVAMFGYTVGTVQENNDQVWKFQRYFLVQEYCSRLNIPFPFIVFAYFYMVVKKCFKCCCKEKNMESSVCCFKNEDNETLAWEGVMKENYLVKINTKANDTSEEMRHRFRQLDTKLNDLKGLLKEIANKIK

Cn1ncc2ccc(C(=O)N[C@]3(c4ccc(OC(F)(F)F)cc4)CCOc4cccnc43)cc21 [Example 263, (S)-1-methyl-N-(4-(4-(trifluoromethoxy)phenyl)-3,4-dihydro-2H-pyrano[3,2-b]pyridin-4-yl)-1H-indazole-6-carboxamide formate]
IC50: 0.095 µM

Cn1cc2c(C(=O)N[C@]3(c4ccc(OC(F)(F)F)cc4)CCOc4cccnc43)cccc2n1 [Example 264, (S)-2-methyl-N-(4-(4-(trifluoromethoxy)phenyl)-3,4-dihydro-2H-pyrano[3,2-b]pyridin-4-yl)-2H-indazole-4-carboxamide formate]
IC50: 0.074 µM

Cn1cc2ccc(C(=O)N[C@]3(c4ccc(OC(F)(F)F)cc4)CCOc4cccnc43)cc2n1 [Example 265, (S)-2-methyl-N-(4-(4-(trifluoromethoxy)phenyl)-3,4-dihydro-2H-pyrano[3,2-b]pyridin-4-yl)-2H-indazole-6-carboxamide formate]
IC50: 0.014 µM

Cn1cc2cccc(C(=O)N[C@]3(c4ccc(OC(F)(F)F)cc4)CCOc4cccnc43)c2n1 [Example 266, (S)-2-methyl-N-(4-(4-(trifluoromethoxy)phenyl)-3,4-dihydro-2H-pyrano[3,2-b]pyridin-4-yl)-2H-indazole-7-carboxamide formate]
IC50: 0.036 µM

O=C(N[C@]1(c2ccc(OC(F)(F)F)cc2)CCOc2cccnc21)c1cc2ccccc2s1 [Example 267, (S)-N-(4-(4-(trifluoromethoxy)phenyl)-3,4-dihydro-2H-pyrano[3,2-b]pyridin-4-yl) benzo[b]thiophene-2-carboxamide formate]
IC50: 0.037 µM

O=C(N[C@]1(c2ccc(OC(F)(F)F)cc2)CCOc2cccnc21)c1csc2ccccc12 [Example 268, (S)-N-(4-(4-(trifluoromethoxy)phenyl)-3,4-dihydro-2H-pyrano[3,2-b]pyridin-4-yl) benzo[b]thiophene-3-carboxamide formate]
IC50: 0.071 µM

O=C(N[C@]1(c2ccc(OC(F)(F)F)cc2)CCOc2cccnc21)c1ccc2nsnc2c1 [Example 269, (S)-N-(4-(4-(trifluoromethoxy)phenyl)-3,4-dihydro-2H-pyrano[3,2-b]pyridin-4-yl) benzo[c][1,2,5] thiadiazole-5-carboxamide formate]
IC50: 0.024 µM

Cn1nc2c(c1C(=O)N[C@]1(c3ccc(OC(F)(F)F)cc3)CCOc3cccnc31)CCCC2 [Example 270, (S)-2-methyl-N-(4-(4-(trifluoromethoxy)phenyl)-3,4-dihydro-2H-pyrano[3,2-b]pyridin-4-yl)-4,5,6,7-tetrahydro-2H-indazole-3-carboxamide formate]
IC50: 0.044 µM

O=C(N[C@]1(c2ccc(OC(F)(F)F)cc2)CCOc2cccnc21)c1ccc2cc[nH]c(=O)c2c1 [Example 271, (S)-1-oxo-N-(4-(4-(trifluoromethoxy)phenyl)-3,4-dihydro-2H-pyrano[3,2-b]pyridin-4-yl)-1,2-dihydroisoquinoline-7-carboxamide formate]
IC50: 0.016 µM

O=C(N[C@]1(c2ccc(OC(F)(F)F)cc2)CCOc2cccnc21)c1c[nH]c(=O)c2ccccc12 [Example 272, (S)-1-oxo-N-(4-(4-(trifluoromethoxy)phenyl)-3,4-dihydro-2H-pyrano[3,2-b]pyridin-4-yl)-1,2-dihydroisoquinoline-4-carboxamide formate]
IC50: 0.183 µM

O=C(N[C@]1(c2ccc(OC(F)(F)F)cc2)CCOc2cccnc21)c1ccc(-c2cnco2)cc1 [Example 273, (S)-4-(oxazol-5-yl)-N-(4-(4-(trifluoromethoxy)phenyl)-3,4-dihydro-2H-pyrano[3,2-b]pyridin-4-yl)benzamide formate]
IC50: 0.019 µM

COc1cc2cc(C(=O)N[C@]3(c4ccc(OC(F)(F)F)cc4)CCOc4cccnc43)[nH]c2cn1 [Example 274, (S)-5-methoxy-N-(4-(4-(trifluoromethoxy)phenyl)-3,4-dihydro-2H-pyrano[3,2-b]pyridin-4-yl)-1H-pyrrolo[2,3-c] pyridine-2-carboxamide formate]
IC50: 0.189 µM
